Results taken from patent publication US7629447B2, “Dideoxynucleoside derivatives” (Wako Pure Chemical Industries, Ltd., priority 2006, dated 2009).
[5NF] = 5'-amino-2'-fluoro-2',5'-dideoxyuridine unit, linked through its 5'-amino group; d = 2'-deoxy (DNA)

What was measured:
[1] = tested on: complementary DNA oligonucleotide (SEQ ID NO:7 or SEQ ID NO:8); test: Thermal stability test, measurement of Tm (DNA/DNA match duplex); type: binding; details: for Tm / Tm of the duplex DNA/DNA compared with that of T-1 (control) and T-2 (control), in words / ΔTm: duplex DNA/DNA; for Tm: 3 μM each oligonucleotide, 10 mM sodium phosphate buffer, 100 mM sodium chloride, pH 7.0, 20 to 90° C. at 0.5° C. per minute, absorbance at 260 nm; for Tm of the duplex DNA/DNA compared with that of T-1 (control) and T-2 (control), in words: versus oligonucleotides of only naturally occurring nucleosides; for ΔTm: difference from the matching control (T-1 or T-2)
Source text: Using commercially available dT-CE phosphoramidite and dA-CE phosphoramidite (both of them were produced by Glen research Corp.) as materials, also using 3′-dT-CPG (1 μmol) packed in a column (produced by Glen research Corp.) as a starting material, oligonucleotides were synthesized according to the same method as in Example 2, in order to obtain oligonucleotides which were each complementary to UNF-1 and UNF-2 obtained in Example 2, respectively. The base sequences of oligonucleotides complementary to UNF-1 (SEQ ID NO:7) and complementary to UNF-2 (SEQ ID NO:8) are shown in Table 2 below.
Using UNF-1 and UNF-2, which were synthesized in Example 2, and complementary oligonucleotides thereto shown in Table 2 as materials, duplexes DNA/DNA were prepared according to the conventional method (R. Kierzek et al., Biochemistry, 1986, vol. 25, pp. 7840-7846).
Using the obtained duplex DNA/DNA, thermal stability test was carried out according to the conventional method.
(§1) That is, using a UV-2450 SPECTROPHOTOMETER equipped with a temperature-variable device (produced by Shimadzu Corp.), the oligonucleotides were placed in 8 consecutive 10 mm cells under the nitrogen atmosphere, and 10 mM of sodium phosphate buffer and 100 mM of sodium chloride (pH 7.0) were added thereto so that the concentration of each oligonucleotide became 3 μM, then the temperature was increased from 20° C. to 90° C. with a climbing rate of 0.5° C. per minute, and absorbance at 260 nm were measured.
(§2) A duplex DNA/DNA formed between TN-1 synthesized in Comparative Example 2 and a complementary oligonucleotide thereto represented by SEQ ID NO:7, and a duplex formed DNA/DNA between TN-2 synthesized in Comparative Example 2 and a complementary oligonucleotide thereto represented by SEQ ID NO:8 were synthesized according to the same method as in Example 3. The thermal stability of these duplex nucleic acids obtained was examined according to the same method as in Example 3.
as §2, with “In addition, a duplex” for “A duplex”, “between T-1 (control)” for “between TN-1”, “duplex DNA” for “duplex formed DNA/DNA”, “between T-2 (control)” for “between TN-2”, “3. Thermal” for “3. The thermal”, “3. The results were shown together in FIG. 1.” for “3.”

[2] = tested on: complementary RNA oligonucleotide (SEQ ID NO:9 or SEQ ID NO:10); test: Thermal stability test, measurement of Tm (DNA/RNA match duplex); type: binding; details: for Tm / Tm of the duplex DNA/RNA compared with that of T-1 (control) and T-2 (control), in words / ΔTm: duplex DNA/RNA; for Tm: same method as Example 3 (3 μM, 10 mM sodium phosphate buffer, 100 mM sodium chloride, pH 7.0); for Tm of the duplex DNA/RNA compared with that of T-1 (control) and T-2 (control), in words: versus oligonucleotides of only naturally occurring nucleosides; for ΔTm: difference from the matching control (T-1 or T-2)
Method: as §1
Using commercially available rA-CE phosphoramidite, rU-CE phosphoramidite and rC-CE phosphoramidite as materials, also using 3′-dU-CPG (all of them were produced by Glen research Corp.) as a starting material, complementary oligonucleotides to each of UNF-1 and UNF-2 which were prepared in Example 2, were synthesized according to the same method as in Example 2.
Using UNF-1 and UNF-2, which were synthesized in Example 2, and the complementary oligonucleotides thereto shown in Table 2 as materials, a duplex DNA/RNA was prepared according to the conventional method (R. Kierzek et al., Biochemistry, 1986, vol. 25, pp. 7840-7846).
Using the obtained duplexes DNA/RNA, thermal stability test was carried out according to the same method as in Example 3.
A duplex DNA/RNA formed between TN-1 synthesized in Comparative Example 2 and a complementary oligonucleotide thereto represented by SEQ ID NO:9, and a duplex DNA/RNA formed between TN-2 synthesized in Comparative Example 2 and a complementary oligonucleotide thereto represented by SEQ ID NO:10 were synthesized according to the same method as in Example 4. Thermal stabilities of these duplex nucleic acids obtained were examined according to the same method as in Example 4.
In addition, a duplex DNA/RNA formed between T-1 (control) synthesized in Comparative Example 2 and a complementary oligonucleotide thereto represented by SEQ ID NO:9, and a duplex DNA formed between T-2 (control) synthesized in Comparative Example 2 and a complementary oligonucleotide thereto represented by SEQ ID NO:10 were synthesized according to the same method as in […]. Thermal stabilities of these duplex nucleic acids obtained were examined according to the same method as in Example 4.

| Substance | Tm [1] [°C] | Tm [2] [°C] | Tm of the duplex DNA/DNA compared with that of T-1 (control) and T-2 (control), in words [1] | ΔTm [1] | Tm of the duplex DNA/RNA compared with that of T-1 (control) and T-2 (control), in words [2] | ΔTm [2] | Tm compared with that of UNF-1, in words ([1]; duplex DNA/DNA (Table 3), two UNFs versus one UNF) | Tm compared with that of UNF-1, in words ([2]; duplex DNA/RNA (Table 5), two UNFs versus one UNF) |
| --- | --- | --- | --- | --- | --- | --- | --- | --- |
| T-1 (control): SEQ ID NO:5, 5′-d(AAG GAA ATG AGG AAA GA)-3′; oligonucleotide comprising only naturally occurring nucleosides (AAGGAAATGAGGAAAGA; unmodified DNA) | 52.9 | 42.1 | – | – | – | – | – | – |
| T-2 (control): SEQ ID NO:6, 5′-d(AAG GAA TTG AGG AAA GA)-3′; oligonucleotide comprising only naturally occurring nucleosides (AAGGAATTGAGGAAAGA; unmodified DNA) | 53.5 | 44 | – | – | – | – | – | – |
| TN-1: SEQ ID NO:3, 5′-(AAG GAA AT^NG AGG AAA GA)-3′; T^N = introduced 5′-aminothymidine (comparative) (AAGGAAANGAGGAAAGA; 5'-aminothymidine, chemistry not fully specified) | 50.6 | 37.7 | lower | −2.3 | lower | −4.4 | – | – |
| TN-2: SEQ ID NO:4, 5′-(AAG GAA T^NT^NG AGG AAA GA)-3′; T^N = introduced 5′-aminothymidine (comparative) (AAGGAANNGAGGAAAGA; 5'-aminothymidines, chemistry not fully specified) | 48.3 | 39 | lower | −5.2 | lower | −5.0 | – | – |
| UNF-1: SEQ ID NO:1, 5′-(AAG GAA AU^NFG AGG AAA GA)-3′; U^NF = introduced 5′-amino-2′-fluoro-2′,5′-dideoxyuridine (AAGGAAAUGAGGAAAGA; sugars from the 5' end d7 [5NF]1 d9, backbone not given here) | 51.8 | 41.9 | equivalent | −1.1 | equivalent | −0.2 | – | – |
| UNF-2: SEQ ID NO:2, 5′-(AAG GAA U^NFU^NFG AGG AAA GA)-3′; U^NF = introduced 5′-amino-2′-fluoro-2′,5′-dideoxyuridine (AAGGAAUUGAGGAAAGA; sugars from the 5' end d6 [5NF]2 d9, backbone not given here) | 52.1 | 43.5 | equivalent | −1.4 | equivalent | −0.5 | higher | higher |
